Earlier results on one molecule are cited in patent publication US20220031887A1, “Active Materials, Surfaces, Surface Treatments And Methods Using Inclusion Complex Formers For Pathogen Reduction” (priority 2020, published 2022).

Take `O=C1OC2(c3ccccc31)c1cc(Br)c(O)c(Br)c1Oc1c2cc(Br)c(O)c1Br` [Eosin Y]: the Epsilon (in ideal solvent) is listed as 112,000. Also, for the setting “peak absorption in visible light”, the “Lambda Max” value is given as 525.
